Data set [1] has as its system aHSC. More on the design: method as in PMID 32893252. The settings on record: cited from earlier work.
The nature of data set [2]: Pharmacokinetics after oral administration. The data set is classed as in vivo, Sprague–Dawley rats. As to the method:
All animal procedures were approved by the Animal Care and Use Committee of the Renmin Hospital of Wuhan University (Laboratory Animal Welfare and Ethics Committee [Institutional Animal Care and Use Committee] Issue No.: WDRM NO.20200501). […] Free GA, GA-NPs, and RA-GA-NPs were orally administered (GA concentration: 50 mg kg^−1). Subsequently, 200 μL of blood were collected at predetermined time points (i.e., 0.5, 1, 2, 4, 6, 8, 10, 12, and 24 h). The concentrations of GA in plasma were determined by HPLC. Plasma samples (200 μL) were extracted using 200 μL of acetonitrile, vortexed for 10 min, and centrifuged at 5000 rpm for 5 min. Thereafter, the supernatant was collected and filtered using a 0.45 μm nylon 66 membrane. Finally, each sample (20 μL) was injected into the HPLC system.

Data set [3] deals with HF model induced by CCl4. The data set is described as follows: Anti-HF effect in vivo. More on the design: species or system C57BL/6 mice. The settings on record: 20 mg kg^−1 oral daily for 4 weeks, CCl4 mice. As to the method: Forty 6 weeks-old male C57BL/6 mice (weight: 20 ± 2 g; […]) were randomly divided into five groups (n = 8 per group): control; tetrachloromethane (CCl4)-treated; free GA; GA-NPs; and RA-GA-NPs. The HF model was induced by intraperitoneal injection with 10% CCl4 (diluted in olive oil, 5 mL per kg body weight) thrice per week for 4 consecutive weeks.[33–35] The control mice received an intraperitoneal injection with an equal volume of olive oil. The mice in all treatment groups received an injection with CCl4 for 4 weeks, as well as free GA, GA-NPs, or RA-GA-NPs (20 mg kg^−1) through oral administration once daily for 4 weeks; the dose of GA was based on previous reports.[36,37] All mice were sacrificed 12 h after the last administration, and blood specimens were collected through retro-orbital bleeding. Serum was subsequently separated by centrifugation at 3500 rpm for 15 min at 4 °C and stored at −20 °C. […] is typically used to discriminate collagen fibers from tissues on histological slides. […] The levels of ALT, AST, and Hyp were determined using detection kits, respectively, according to the instructions provided by the manufacturer. In addition, the serum levels of markers, HA, LN, PC III, and Col IV were determined using ELISA kits based on the respective protocols.

[4] abbreviates: both sexes, Sprague-Dawley, rat, plasma, GA 50 mg kg^−1, n = 6.

For `O=c1c(O)c(-c2ccccc2)oc2cc(O)cc(O)c12` [Free GA, 3,5,7-trihydroxyflavone], the “concentration at which inhibition of aHSC in vitro was initiated” value in data set [1] is 6 µg/mL. Moreover, in data set [2] (GA 50 mg kg^−1, n = 6), the AUC came out at 2580 ± 470 ng·h/mL, the CL was 3.99 ± 0.73 (mg kg^−1)/h(μg mL^−1) and the V d was found to be 20.98 ± 4.22 L/kg. In addition, the “time for which serum drug concentrations were detected / maintained” value in data set [2] (GA 50 mg kg^−1, sampling up to 24 h) is “up to 12 h”. For the same compound, in data set [2] (setting [4]), the MRT came out at 5.25 ± 0.16 h and the half-life is 3.64 ± 0.11 h. Also, the “effect on the biomarkers of HF (HA, LN, PC III, Col IV)” value in data set [3] is on record as “modest anti-fibrotic effect”.

(Values after paper PMC10077338, “Galangin delivered by retinoic acid-modified nanoparticles targeted hepatic stellate cells for the treatment of hepatic fibrosis” (RSC Advances, 2023).)
